Measurements published in publication PMC11002875, “Linking triphenylphosphonium cation to a bicyclic hydroquinone improves their antiplatelet effect via the regulation of mitochondrial function” (Redox Biology, 2024).

Legend:
[1] = system: platelet-rich plasma (PRP); test: Clot retraction; set-up: species or system Human; details: 10 μM; thrombin 0.5 Units/mL; 2 h
Procedure: Clot retraction. Blood was obtained in 3.2% citrate tubes, which were centrifuged for 12 min at 250 g to obtain platelet-rich plasma (PRP). The assay was prepared in Khan tubes by adding 750 μL of tyrodes buffer without calcium, 200 μL of PRP, and 5 μL of red blood cells; the mixture was treated with NP4 10 μM or vehicle and incubated for 10 min. A glass rod was positioned in the center of the tube (as a support for clot adhesion) and clot retraction was initiated by adding 50 μl of 10 Units/mL thrombin (final concentration 0.5 Units/mL). Photographs were recorded at 0; 15; 30; 60; 90; and 120 min time intervals. The clots formed after 2 h were weighed to quantify retraction.

Washed platelets [2] = test: Platelet activation markers in washed platelets (flow cytometry); type: cell-based, Human; details: collagen 2 μg/mL; compounds 1, 5 and 10 μM; vs activated control
Procedure: (§1) Human platelet purification. The blood sample was obtained from voluntary donors (10 days without antiplatelet medication) who agreed to participate after signing informed consent (Scientific Ethics Committee of the University of Talca N° 04–2022). Briefly, blood anticoagulated with acid-citrate-dextrose (ACD) was obtained in a 4:1 v/v ratio. The sample was centrifuged for 12 min at 250 g to obtain platelet-rich plasma (PRP). Subsequently, the PRP was centrifuged for 8 min at 900 g to obtain the platelet pellet. The plasma supernatant was removed, and the platelets were resuspended in Tyrodes buffer without calcium plus ACD in a ratio of 5:1 v/v. The platelets were centrifuged once more for 8 min at 900 g and the pellet was resuspended in Tyrodes buffer without calcium. Finally, the platelets were counted (Mindray BC-3000 Plus hematology counter, Japan), adjusted to the desired concentration, and used within 3 h.
Platelet activation markers. Washed platelets (200-250 × 10^6 platelets/mL) were incubated with the compounds (1, 5 and 10 μM), then activated with collagen 2 μg/mL and incubated for 5 min at 37 °C. Aliquots of the reaction were then collected and labeled separately with human antibodies (BD Biosciences, San José, CA, USA) for P-selectin, CD63, activated GPIIb/IIIa (PAC-1), and fibrinogen to assess the levels of each marker on the platelet membrane. The sample was acquired using the BD Facs Lyric flow cytometer (BD Biosciences, USA). Representative dot plots are available in Supplementary Figures 8-11 and 20-23. In the case of the activation markers P-selectin and bound fibrinogen in PRP, the same procedure for washed platelets was performed with representative dot plots available in Supplementary Figs. 15 and 16. The platelet population was identified with anti-CD61-PE or anti-CD61-FITC (BD Biosciences, San José, CA, USA).

platelet-rich plasma = test: Platelet activation markers in PRP (flow cytometry); type: cell-based, Human; details: collagen 2 μg/mL
Procedure: Platelet aggregation in platelet-rich plasma. The blood sample was obtained from voluntary donors (10 days without antiplatelet medication) who agreed to participate after signing informed consent (Scientific Ethics Committee of the University of Talca N° 04–2022). Venous blood was collected by phlebotomy into 3.2% sodium citrate tubes. The tubes were centrifuged at 250 g for 12 min to obtain PRP. After reserving the PRP, the tubes were centrifuged again at 900 g for 10 min to obtain platelet-poor plasma (PPP). For the aggregation reaction, PRP was adjusted to 200-250 × 10^6 platelets/mL with PPP [[63], [64], [65]]. Platelet counting was performed in a counter (Mindray BC-3000 Plus hematology counter, Japan). The samples were preincubated with the compounds under study for 5 min at 37 °C in the aggregometer (Agg RAM- Helena Biosciences). Aggregation was initiated with collagen 2 μg/mL and the reaction was evaluated for 5 min at 37 °C in shaking at 1000 rpm.
Platelet activation markers. […] Aliquots of the reaction were then collected and labeled separately with human antibodies (BD Biosciences, San José, CA, USA) for P-selectin, CD63, activated GPIIb/IIIa (PAC-1), and fibrinogen to assess the levels of each marker on the platelet membrane. The sample was acquired using the BD Facs Lyric flow cytometer (BD Biosciences, USA). […]

Washed platelets [3] = test: Cell viability by Calcein-AM (flow cytometry); type: cell-based, Human; details: 1, 2, 5, 10 and 20 μM; 15 min
Procedure: as §1
Cell viability by Calcein-AM. Washed platelets (200-250 × 10^6 platelets/mL) were labeled with 0.1 μM Calcein-AM and incubated for 15 min at 37 °C protected from light. […] Viability was analyzed on the BD Facs Lyric Flow Cytometer (BD Biosciences, USA). The percentage of Calcein-negative platelets (without fluorescence) in the CD61-PE-positive subpopulation (BD Biosciences, San José, CA, USA) was identified as non-viable platelets. […]

Washed platelets [4] = test: Cellular cytotoxicity by release of lactate dehydrogenase (LDH); type: cell-based, Human; details: Supplementary Fig. 1
Procedure: as §1
Cellular cytotoxicity by the release of lactate dehydrogenase (LDH). Washed platelets (200-250 × 10^6 platelets/mL) were incubated with the compounds under study or vehicle for 15 min at 37 °C. Then, the platelets were centrifuged at 900 g for 8 min to collect the supernatant. […] The absorbance was analyzed at 490 nm (Microplate Reader Thermo Scientific Multiskan Go, Finland).

Washed platelets [5] = test: Intraplatelet calcium levels (Fluo-4-AM); type: cell-based, Human; details: compounds 1, 5 and 10 μM, 10 min
Procedure: as §1
Intraplatelet calcium levels. Washed platelets (200-250 × 10^6 platelets/mL) were labeled Fluo-4-AM probe with 0.5 μM and incubated for 20 min at room temperature protected from light. Subsequently, platelets were adjusted to a count of 50 × 10^6 platelets/mL, and compounds (1, 5, and 10 μM) were added and incubated for 10 min at 37 °C. The sample was acquired in the BD Facs Lyric flow cytometer (BD Biosciences, USA). Representative dot plots are available in Supplementary Figs. 13 and 26. As a control for increased intracellular calcium, P-trifluoromethoxyphenylhydrazone carbonylcyanide (FCCP) 1 μM was used.

With `Cc1c(C)c(O)c2c(c1O)C(=O)C(CCCC[P+](c1ccccc1)(c1ccccc1)c1ccccc1)=CC2(C)C.[Br-]` [NP4, (4-(5,8-dihydroxy-4,4,6,7-tetramethyl-1-oxo-1,4-dihydronaphthalen-2-yl)butyl)triphenyl phosphonium bromide] the “Clot retraction (clot weight)” value [1] was “does not significantly alter”, the “Bound fibrinogen platelet activation marker” value (Washed platelets [2]) was “at the 10 μM concentration was able to significantly decrease” and the “CD63 platelet activation marker” value (Washed platelets [2]) was “at the 10 μM concentration was able to significantly decrease”. The “P-selectin platelet activation marker” value (Washed platelets [2]) was “at the 10 μM concentration was able to significantly decrease”, the “PAC-1 (activated GPIIb/IIIa) platelet activation marker” value (Washed platelets [2]) was “at the 10 μM concentration was able to significantly decrease” and the “Bound fibrinogen in platelet-rich plasma” value (platelet-rich plasma) was “significant decrease”. For the same compound, the “P-selectin exposure in platelet-rich plasma” value (platelet-rich plasma) was “significant decrease”, the “Platelet viability (Calcein-AM negative platelets)” value (Washed platelets [3]) was “none of the concentrations evaluated for NP4 showed significant effects” and the “Safe concentrations (LDH release)” value (Washed platelets [4]) was “below 10 μM”. The Intraplatelet calcium levels (Washed platelets [5]) was “increase it significantly”.
